Laboratory results taken from patent US6797699B1, “Neuroprotective agents” (University of Southampton, priority 1997, dated 2004).
Marks after values point to notes of the source that are not given here.

Key:
[1] = tested on: anaesthetised male Wistar rats; assay: Blood flow studies (mean arterial blood pressure after intravenous injection); type: in vivo, Wistar rat; conditions: for MABP (mmHg): pre-injection 79.9 ± 3.9, four observations
Protocol: Adult male Wistar rats (250-300 g) were initially anesthetized with 4% halothane and subsequently anaesthesia was maintained with 1.5% halothane mixed in […] in O2. The femoral artery was cannulated for continuous blood pressure recording. The femoral vein was also cannulated to allow injection of the compound. Animals were allowed 15-30 minutes to stabilise and were then injected with 0.25-0.3 ml of a 1 mg/ml solution of L-ArgSp. Following injection of the compound, rats were continuously monitored for 60 minutes. After this time, anaesthesia was terminated and rats allowed to waken. In these studies, measurement was taken of the mean arterial blood pressure (MABP) induced following an intravenous injection of 1 mg/kg L-ArgSp into the femoral vein of anaesthetised male Wistar rats. MABP was calculated immediately prior to injection of L-ArgSp (pre-injection) and 30 seconds and 10 minutes post-injection. Data are presented as mean […] of four observations.

Adult male Wistar rats = assay: Global forebrain ischaemia in vivo; design: species or system Wistar rat; conditions: 1 mg/kg 15 minutes prior to 15 minutes global forebrain ischaemia; assessed 24 hours after; vs vehicle
Protocol: Animals were anaesthetised as described above, and a thermistor inserted into the left temporal muscle for recording of body temperature. A dorsal midline skin incision was made in the neck and using microsurgery, the vertebral arteries were identified and occluded using a monopolar electrode at the level of C 1. The incision was closed, animals allowed to recover from anaesthesia and returned to their cages for 24 hours. After this time, animals were re-anaesthetised and the common carotid arteries (CCAs) exposed. Animals were divided into two groups. Group 1 received 0.25-0.3 ml of a 1 mg/ml solution of L-ArgSp (final dose 1 mg/kg) while group 2 received 0.25-0.3 ml of sterile distilled water. Samples were prepared independently and randomised prior to injection. Animals were injected 15 minutes prior to occlusion of the CCAs with microvascular clips for 15 minutes. After this time, the skin was closed, and animals allowed to recover. After 24 hours animals were terminally anaesthetised and transcardially perfused with 1% paraformaldehyde and the brains removed and processed for histology. A blinded observer determined the number of live and dead neurones in the CA1, CA3 fields of the pyramidal cell layer, and the dentate gyrus granule cell layer from haematoxylin and eosin stained coronal sections.

[2] = tested on: CA1 pyramidal cell layer of organotypic hippocampal slice cultures; assay: Hypoxic neuronal damage in organotypic hippocampal slice cultures (propidium iodide fluorescence); type: cell-based, Wistar rat; conditions: for neuroprotective effect (in words): 300 μM added 30 minutes prior to hypoxia, during hypoxia and the 24 hour recovery period
Protocol: Hypoxic neuronal damage was studied using organotypic hippocampal slice cultures [Pringle A. K. et al. (1996 Stroke 27 2124-2130)].
Cultures were prepared according to the method of Stoppini et al (1991 J. Neurosci. Meth. 37 173-182) from 8-10 day old Wistar rat pups (Bioresources Unit, University of Southampton). Cultures were maintained in vitro for 14 days (37° C., 5% CO2) during which the medium (50% minimum essential medium (MEM), 25% Hank's balanced salt solution (HBSS), 25% heat-inactivated horse serum, supplemented with 1 mM glutamine, 5 mg/ml glucose and 1.5% fungizone) was changed every 3 days. Hypoxia was induced by replacing culture medium with serum-free (SF) medium (75% MEM, 25% HBSS, 1 mM glutamine, 5 mg/ml glucose, 1.5% fungizone) saturated with 95% N2/5% CO2 (and thus oxygen-free), and placing cultures in an air-tight chamber in which the atmosphere was also saturated with N2/CO2. After 180 minutes hypoxia, cultures were replated in normoxic SF medium and replaced in the incubator for 24 hours. Compounds were added to cultures either pre-, during and post-hypoxia (herein abbreviated to “pdp”) or just in the post-hypoxic recovery period (“post”) [Johnson, T. D. (1996 Trends Pharmacol. Sci. 22-27)]. Cell damage was evaluated using the fluorescent exclusion dye propidium iodide (PI, 5 μg/ml) which is normally excluded from healthy cells, but enters cells with damaged plasma membranes and becomes highly fluorescent when bound to DNA. Neuronal cell damage was quantified using the “NIH Image 1.55” software (written by Wayne Rasband at the U.S. National Institutes for Health and available from the internet by anonymous ftp from zippy.nimh.nih.gov). Briefly, the area of the CA1, CA3 and dentate gyrus (DG) cell layers was measured from a transmission image. 24 hours after the commencement of hypoxia, a fluorescence image was captured using a standard Leica inverted fluorescence microscope fitted with a rhodamine filter set. The area of PI fluorescence above background in the neuronal cell layers was determined using the density slice function of Image. Cellular damage is expressed as the percentage area of the cell body layers in which PI fluorescence was detectable. After imaging, cultures were fixed overnight in 4% paraformaldehyde and stained with thionin.
Data are expressed as the mean±sem. Data from the non-drug groups was pooled before analysis. Statistical significance was determined using one-way analysis of variance (ANOVA) followed by post-hoc non-paired Student's t-tests. As only cells within the CA1 region were susceptible to hypoxia-induced damage, all of the pharmacological data was calculated for this region alone.
Table 1 represents the quantification of the percentage area of the CA1 pyramidal cell layer in which PI fluorescence was detectable 24 hours after 3 hours of hypoxia (% Damage CA1). Data from all of the cultures exposed to hypoxia alone were pooled (control hypoxia). The percentage neuroprotection was calculated as the (((% damage control hypoxia-% damage drug treated)/% damage control hypoxia) 100). Data are expressed as the mean±sem, n=number of cultures, *p<0.05, **<0.01, ***p<0.001 vs hypoxia control.

N=C(N)NCCCC(N)C(=O)NCCCNCCCCN [Compound A, N′-L-Arginylspermidine]
effect on body temperature ([1]; 1 mg/kg intravenous): No effect
effect on heart rate ([1]; 1 mg/kg intravenous): No effect
ill effects on the animals following wakening ([1]; 1 mg/kg intravenous): no ill effects
reduction in MABP (significance, in words) ([1]; 1 mg/kg intravenous): not statistically significant
% Charge ([1]; 1 mg/kg intravenous, 30 secs post-injection vs pre-injection): −9.6%
MABP (mmHg) ([1]; 1 mg/kg intravenous, 30 secs post-injection): 72.2 ± 5.1 mmHg
% Charge ([1]; 1 mg/kg intravenous, 10 minutes post-injection vs pre-injection): −0.9%
MABP (mmHg) ([1]; 1 mg/kg intravenous, 10 minutes post-injection): 79.2 ± 6.5 mmHg
blood pressure recordings (in words) ([1]; 1 mg/kg intravenous, 60 minutes after injection): identical to those 10 minutes post-drug administration
long-term behavioural deficits ([1]; 1 mg/kg, five rats recovered for three days): no long-term behavioural deficits have been observed
effect on blood flow compared with FTX (in words) ([1]; rat, in vivo): less adverse effect on blood flow than FTX
neuronal loss in CA1, CA3 and dentate gyrus (in words) (Adult male Wistar rats): neuronal loss was significantly attenuated
neuroprotective effect (in words) [2]: complete protection
neuroprotective effect (in words) ([2]; listed as L-ArgSp): completely neuroprotective
neuroprotective effect / reduction of PI fluorescence in CA1 (in words) ([2]; 300 μM added post-hypoxia): significant protective effect
neuroprotective effect / reduction of PI fluorescence in CA1 (in words) ([2]; 300 μM added post-hypoxia, listed as L-ArgSp): significant neuroprotective effect
concentration dependence of the neuroprotective effect ([2]; 0.3-300 μM added immediately post-hypoxia): concentration dependent
EC50 ([2]; Rattus norvegicus, added immediately post-hypoxia, 0.3-300 μM, read-out: EC50 of the neuroprotective effect): 3 to 30 µM
% Damage CA1 ([2]; Table 1, 300 μM added post-hypoxia, 3 h hypoxia, PI at 24 h, control hypoxia 35.6 ± 1.43, mean±sem): 9.9 ± 3.5*** %
% Protection ([2]; Table 1, 300 μM added post-hypoxia, vs control hypoxia): > 70%
% Protection ([2]; Table 1, 300 μM added post-hypoxia, vs control hypoxia, listed as L-ArgSp): 72.2%
% Damage CA1 ([2]; Table 1, 300 μM added pre-, during and post-hypoxia (pre), 3 h hypoxia, PI at 24 h, control hypoxia 35.6 ± 1.43, mean±sem, listed as L-ArgSp): 0.2±0.02%
% Protection ([2]; Table 1, 300 μM added pre-, during and post-hypoxia (pre), vs control hypoxia): 99.4%
% Protection ([2]; Table 3, 0.3 μM pdp, fresh batch): 15.5%
% Damage CA1 ([2]; Table 3, 0.3 μM pdp, fresh batch, control hypoxia 23.9 ± 2.7): 20.2 ± 8.4%
% Protection ([2]; Table 3, 1 μM pdp, fresh batch): 15.9%
% Damage CA1 ([2]; Table 3, 1 μM pdp, fresh batch, control hypoxia 23.9 ± 2.7): 20.1 ± 8.2%
% Protection ([2]; Table 3, 3 μM pdp, fresh batch): 72.8%
% Damage CA1 ([2]; Table 3, 3 μM pdp, fresh batch, control hypoxia 23.9 ± 2.7): 6.5 ± 3.0** %
% Protection ([2]; Table 3, 10 μM pdp, fresh batch): 63.2%
% Damage CA1 ([2]; Table 3, 10 μM pdp, fresh batch, control hypoxia 23.9 ± 2.7): 8.8 ± 3.9* %
% Protection ([2]; Table 3, 30 μM pdp, fresh batch): 65.9%
% Damage CA1 ([2]; Table 3, 30 μM pdp, fresh batch, control hypoxia 23.9 ± 2.7): 7.3 ± 4.2* %
% Protection ([2]; Table 3, 300 μM pdp, fresh batch): 66.5%
% Damage CA1 ([2]; Table 3, 300 μM pdp, fresh batch, control hypoxia 23.9 ± 2.7): 8.0 ± 3.0** %
% Protection ([2]; Table 7, 300 μM post): 56.3%
% Damage CA1 ([2]; Table 7, 300 μM post, hypoxia control 27.7 ± 3.1): 12.1 ± 3.5** %
